Data: US20220056037A1 (SPV THERAPEUTICS INC., priority 2018, published 2022)
Like-named read-outs stand apart in the source and are kept apart here.

Columns and labels:
Assay in all cases: Inhibition assay, microfluidic LabChip (Nanosyn)
Format in all cases: biochemical
CDK1/B = CDK1/B (Homo sapiens, UniProt P06493); details: Table 3a
Procedure: (§1) The reaction was terminated by the addition of EDTA. The plates were analyzed using a Caliper LabChip 3000.
(§2) Additional inhibition assays were performed as described above.

CDK2-CYCLINA = molecular target: T1, CDK2-CYCLINA (Homo sapiens, UniProt P24941);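 note: values are IC50 from a concentration-response series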
T1 construct: purchased Millipore
Procedure: as §1, §2

CDK4-CYCLIND1 = molecular target: T2, CDK4-CYCLIND1 (Homo sapiens, UniProt P11802); details: read-out: CDK4 CyclinD1 IC50
T2 construct: purchased Invitrogen
T2 sequence (P11802 whole entry): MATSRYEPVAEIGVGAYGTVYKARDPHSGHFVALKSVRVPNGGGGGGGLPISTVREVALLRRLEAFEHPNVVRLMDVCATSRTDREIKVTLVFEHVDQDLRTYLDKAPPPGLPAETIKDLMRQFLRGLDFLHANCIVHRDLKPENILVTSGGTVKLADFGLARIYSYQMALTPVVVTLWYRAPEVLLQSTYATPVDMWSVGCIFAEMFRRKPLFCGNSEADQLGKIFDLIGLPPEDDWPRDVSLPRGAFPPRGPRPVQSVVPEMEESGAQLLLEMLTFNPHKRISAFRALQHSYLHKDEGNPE
T2 sequence (P24385 whole entry partner): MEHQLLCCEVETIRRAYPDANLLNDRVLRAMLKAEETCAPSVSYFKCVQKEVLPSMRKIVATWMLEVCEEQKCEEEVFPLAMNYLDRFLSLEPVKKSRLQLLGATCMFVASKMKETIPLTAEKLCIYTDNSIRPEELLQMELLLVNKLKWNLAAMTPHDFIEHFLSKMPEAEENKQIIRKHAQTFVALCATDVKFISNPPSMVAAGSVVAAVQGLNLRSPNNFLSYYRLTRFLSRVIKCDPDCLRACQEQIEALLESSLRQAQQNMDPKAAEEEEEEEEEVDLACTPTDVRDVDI
Procedure: as §1, §2

CDK7 CyclinH = CDK7 CyclinH (Homo sapiens, UniProt P50613);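 note: values are IC50 from a concentration-response series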
CDK7 CyclinH, sequence (P50613 whole entry): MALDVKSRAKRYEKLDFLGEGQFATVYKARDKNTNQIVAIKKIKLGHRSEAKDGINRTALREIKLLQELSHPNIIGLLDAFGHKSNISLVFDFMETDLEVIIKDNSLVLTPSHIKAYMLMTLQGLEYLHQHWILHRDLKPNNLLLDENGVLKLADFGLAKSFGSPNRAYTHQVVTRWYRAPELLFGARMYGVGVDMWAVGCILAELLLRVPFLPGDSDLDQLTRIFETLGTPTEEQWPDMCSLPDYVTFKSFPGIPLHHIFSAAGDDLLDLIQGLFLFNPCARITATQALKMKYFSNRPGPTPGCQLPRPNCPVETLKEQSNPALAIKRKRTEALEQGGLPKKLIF
CDK7 CyclinH, sequence (P51946 whole entry partner): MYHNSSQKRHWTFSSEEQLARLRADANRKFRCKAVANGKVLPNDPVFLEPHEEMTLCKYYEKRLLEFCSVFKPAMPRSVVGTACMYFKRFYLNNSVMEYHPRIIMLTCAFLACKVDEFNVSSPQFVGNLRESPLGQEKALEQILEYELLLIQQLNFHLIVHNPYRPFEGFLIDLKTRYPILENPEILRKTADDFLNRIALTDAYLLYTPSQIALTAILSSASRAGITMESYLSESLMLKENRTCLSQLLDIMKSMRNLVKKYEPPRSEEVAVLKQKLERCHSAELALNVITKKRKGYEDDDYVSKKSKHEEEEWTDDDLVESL
CDK7 CyclinH, sequence (P51948 whole entry partner): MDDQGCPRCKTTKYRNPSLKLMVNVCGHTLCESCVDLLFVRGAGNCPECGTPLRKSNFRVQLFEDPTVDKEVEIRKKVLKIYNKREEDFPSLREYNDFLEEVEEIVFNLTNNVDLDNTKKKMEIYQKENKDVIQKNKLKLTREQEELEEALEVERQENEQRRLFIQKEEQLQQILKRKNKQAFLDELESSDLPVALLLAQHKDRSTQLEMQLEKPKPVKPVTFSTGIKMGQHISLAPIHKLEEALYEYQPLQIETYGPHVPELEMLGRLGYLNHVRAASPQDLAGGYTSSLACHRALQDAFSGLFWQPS
Procedure: as §1, §2

CDK9-CYCLINT1 = molecular target: T3, CDK9-CYCLINT1 (Homo sapiens, UniProt P50750);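 note: values are IC50 from a concentration-response series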
T3 construct: purchased Carna
T3 sequence (P50750 whole entry): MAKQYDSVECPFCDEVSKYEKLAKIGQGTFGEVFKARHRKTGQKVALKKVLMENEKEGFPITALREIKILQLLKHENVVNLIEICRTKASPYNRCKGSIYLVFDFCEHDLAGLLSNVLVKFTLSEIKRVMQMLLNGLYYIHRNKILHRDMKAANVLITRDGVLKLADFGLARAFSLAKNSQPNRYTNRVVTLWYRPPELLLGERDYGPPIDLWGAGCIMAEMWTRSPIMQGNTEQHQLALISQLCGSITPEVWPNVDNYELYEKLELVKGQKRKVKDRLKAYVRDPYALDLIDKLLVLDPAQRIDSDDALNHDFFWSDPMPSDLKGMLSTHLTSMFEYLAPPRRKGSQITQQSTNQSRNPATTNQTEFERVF
T3 sequence (O60563 whole entry partner): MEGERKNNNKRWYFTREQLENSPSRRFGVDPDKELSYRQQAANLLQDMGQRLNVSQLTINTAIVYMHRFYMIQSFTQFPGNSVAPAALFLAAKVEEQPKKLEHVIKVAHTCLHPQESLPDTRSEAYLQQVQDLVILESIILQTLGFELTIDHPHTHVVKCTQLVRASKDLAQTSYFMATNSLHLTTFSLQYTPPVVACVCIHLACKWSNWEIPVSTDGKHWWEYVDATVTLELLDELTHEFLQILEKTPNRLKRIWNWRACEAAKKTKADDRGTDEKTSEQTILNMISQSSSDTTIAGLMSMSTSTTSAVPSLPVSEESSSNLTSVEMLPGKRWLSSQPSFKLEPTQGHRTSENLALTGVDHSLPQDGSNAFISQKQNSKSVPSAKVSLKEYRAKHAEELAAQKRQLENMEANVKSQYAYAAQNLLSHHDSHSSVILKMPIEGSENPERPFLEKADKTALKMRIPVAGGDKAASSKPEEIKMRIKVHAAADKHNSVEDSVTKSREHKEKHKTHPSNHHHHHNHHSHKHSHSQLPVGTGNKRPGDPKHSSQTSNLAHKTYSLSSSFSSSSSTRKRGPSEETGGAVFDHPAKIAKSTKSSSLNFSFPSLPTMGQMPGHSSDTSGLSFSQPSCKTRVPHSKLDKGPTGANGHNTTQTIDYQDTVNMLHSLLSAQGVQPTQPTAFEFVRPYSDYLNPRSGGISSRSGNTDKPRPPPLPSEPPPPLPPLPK
Procedure: as §1, §2

CDK6-CYCLIND3 = molecular target: T4, CDK6-CYCLIND3 (Homo sapiens, UniProt Q00534); details: read-out: CDK6 CyclinD3 IC50
T4 construct: purchased Carna
T4 sequence (Q00534 whole entry): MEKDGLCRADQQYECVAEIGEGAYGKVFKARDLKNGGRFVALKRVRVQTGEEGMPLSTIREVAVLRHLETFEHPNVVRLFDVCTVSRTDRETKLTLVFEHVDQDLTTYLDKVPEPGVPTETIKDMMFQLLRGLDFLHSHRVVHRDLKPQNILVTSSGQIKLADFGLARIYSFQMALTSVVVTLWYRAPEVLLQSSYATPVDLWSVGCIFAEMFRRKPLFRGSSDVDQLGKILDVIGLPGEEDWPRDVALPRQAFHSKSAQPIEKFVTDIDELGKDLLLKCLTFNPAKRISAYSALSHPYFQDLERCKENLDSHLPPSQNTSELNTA
T4 sequence (P30281 whole entry partner): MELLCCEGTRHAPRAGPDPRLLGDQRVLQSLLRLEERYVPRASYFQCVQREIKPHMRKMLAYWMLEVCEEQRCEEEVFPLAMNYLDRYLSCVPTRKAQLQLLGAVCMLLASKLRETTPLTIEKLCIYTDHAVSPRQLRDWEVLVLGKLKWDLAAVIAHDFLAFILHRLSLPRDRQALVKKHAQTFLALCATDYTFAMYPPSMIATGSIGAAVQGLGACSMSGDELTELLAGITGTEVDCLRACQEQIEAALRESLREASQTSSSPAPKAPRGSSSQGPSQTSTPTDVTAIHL
Procedure: as §1, §2

CDK1/B, sequence (P06493 whole entry): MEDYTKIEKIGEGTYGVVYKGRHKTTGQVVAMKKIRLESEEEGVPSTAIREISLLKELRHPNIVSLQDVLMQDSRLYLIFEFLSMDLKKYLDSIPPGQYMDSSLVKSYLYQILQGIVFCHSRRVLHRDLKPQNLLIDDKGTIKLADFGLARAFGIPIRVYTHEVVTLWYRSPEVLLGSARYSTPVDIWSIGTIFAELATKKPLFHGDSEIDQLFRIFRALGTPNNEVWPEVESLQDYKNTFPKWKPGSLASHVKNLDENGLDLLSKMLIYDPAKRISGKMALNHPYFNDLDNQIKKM
CDK1/B, sequence (P14635 whole entry partner): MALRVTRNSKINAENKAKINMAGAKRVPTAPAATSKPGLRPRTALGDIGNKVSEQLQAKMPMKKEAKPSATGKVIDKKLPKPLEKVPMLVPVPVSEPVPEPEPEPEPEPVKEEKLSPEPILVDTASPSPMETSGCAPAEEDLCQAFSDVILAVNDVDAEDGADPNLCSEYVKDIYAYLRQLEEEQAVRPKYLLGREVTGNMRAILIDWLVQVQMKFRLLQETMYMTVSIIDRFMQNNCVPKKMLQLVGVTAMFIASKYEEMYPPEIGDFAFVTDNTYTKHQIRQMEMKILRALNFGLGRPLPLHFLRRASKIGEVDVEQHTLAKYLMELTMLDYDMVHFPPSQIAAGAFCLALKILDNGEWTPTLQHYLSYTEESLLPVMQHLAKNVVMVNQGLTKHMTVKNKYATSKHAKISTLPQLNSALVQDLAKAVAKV

| Structure (SMILES) | IC50 (CDK1/B) [nM] | IC50 (CDK2-CYCLINA; Table 3a) [nM] | IC50 (CDK2-CYCLINA; Table 3b) [nM] | IC50 (CDK4-CYCLIND1; Table 3a) [nM] | IC50 (CDK4-CYCLIND1; Table 3b) [nM] | IC50 (CDK7 CyclinH; Table 3a) [nM] | IC50 (CDK7 CyclinH; Table 3b) [nM] | IC50 (CDK9-CYCLINT1; Table 3a) [nM] | IC50 (CDK9-CYCLINT1; Table 3b) [nM] | IC50 (CDK6-CYCLIND3; Table 3a) [nM] | IC50 (CDK6-CYCLIND3; Table 3b) [nM] |
| --- | --- | --- | --- | --- | --- | --- | --- | --- | --- | --- | --- |
| CN(C)CCOc1ccc(Nc2ncc3cc(C(=O)N(C)C)n(C45CC(C4)C5)c3n2)cc1 [Compound A60, 7-(bicyclo[1.1.1]pentan-1-yl)-2-((4-(2-(dimethylamino)ethoxy)phenyl)amino)-N,N-dimethyl-7H-pyrrolo[2,3-d]pyrimidine-6-carboxamide] | 955 | 800 | 800 | 7.9 | 7.9 | 3420 | 3420 | < 3.2 | < 3.2 |  |  |
| CC1CCN(c2ccc(Nc3ncc4cc(C(=O)N(C)C)n(C56CC(C5)C6)c4n3)cc2)CC1 [Compound A91, 7-(bicyclo[1.1.1]pentan-1-yl)-N,N-dimethyl-2-((4-(4-methylpiperidin-1-yl)phenyl)amino)-7H-pyrrolo[2,3-d]pyrimidine-6-carboxamide] | 1330 | 690 | 690 | 25.5 | 25.5 | 5790 | 5790 | 7.14 |  |  |  |
| CC1CN(c2ccc(Nc3ncc4cc(C(=O)N(C)C)n(C56CC(C5)C6)c4n3)cc2)CC(C)N1 (centres unmarked) [Compound A90, 7-(bicyclo[1.1.1]pentan-1-yl)-2-((4-(3,5-dimethylpiperazin-1-yl)phenyl)amino)-N,N-dimethyl-7H-pyrrolo[2,3-d]pyrimidine-6-carboxamide] | 1150 | 913 | 913 | 11.1 | 11.1 | 5610 | 5610 | 9.26 |  |  |  |
| CN1CCN(c2ccc(Nc3ncc4cc(C(=O)N(C)C)n(C56CC(C5)C6)c4n3)cc2)CC1 [Compound A88, 7-(bicyclo[1.1.1]pentan-1-yl)-N,N-dimethyl-2-((4-(4-methylpiperazin-1-yl)phenyl)amino)-7H-pyrrolo[2,3-d]pyrimidine-6-carboxamide dihydrogen chloride] | 379 | 354 | 354 | < 3.2 | < 3.2 | 1650 | 1650 | 5.1 | 5.1 |  |  |
| Cc1cc(Nc2ncc3cc(C(=O)N(C)C)n(C45CC(C4)C5)c3n2)ccc1OCCN(C)C [Compound A92, 7-(bicyclo[1.1.1]pentan-1-yl)-2-((4-(2-(dimethylamino)ethoxy)-3-methylphenyl)amino)-N,N-dimethyl-7H-pyrrolo[2,3-d]pyrimidine-6-carboxamide] | 620 | 713 | 713 | 14.7 | 14.7 | 2650 | 2650 | < 3.2 | < 3.2 |  |  |
| CN(C)CCOc1ccc(Nc2ncc3cc(C(=O)N(C)C)n(C45CC(C4)C5)c3n2)cc1F [Compound A93, 7-(bicyclo[1.1.1]pentan-1-yl)-2-((4-(2-(dimethylamino)ethoxy)-3-fluorophenyl)amino)-N,N-dimethyl-7H-pyrrolo[2,3-d]pyrimidine-6-carboxamide] | 655 | 742 | 742 | 6.98 | 6.98 | 2140 | 2140 | < 3.2 | < 3.2 |  |  |
| CN1CC2(C1)CN(c1ccc(Nc3ncc4cc(C(=O)N(C)C)n(C56CC(C5)C6)c4n3)cc1)C2 [Compound A69, 7-(bicyclo[1.1.1]pentan-1-yl)-N,N-dimethyl-2-((4-(6-methyl-2,6-diazaspiro[3.3]heptan-2-yl)phenyl)amino)-7H-pyrrolo[2,3-d]pyrimidine-6-carboxamide] | 1830 | 1470 | 1470 | 14 | 14 | > 10000 | > 10000 | 5.1 |  |  |  |
| CN1CCN(C2CCN(c3ccc(Nc4ncc5cc(C(=O)N(C)C)n(C67CC(C6)C7)c5n4)cc3F)CC2)CC1 [Compound A68, 7-(bicyclo[1.1.1]pentan-1-yl)-2-((3-fluoro-4-(4-(4-methylpiperazin-1-yl)piperidin-1-yl)phenyl)amino)-N,N-dimethyl-7H-pyrrolo[2,3-d]pyrimidine-6-carboxamide] | 562 | 632 | 632 |  |  | 2680 | 2680 |  |  |  |  |
| CC(C)N1CCN(c2ccc(Nc3ncc4cc(C(=O)N(C)C)n(C56CC(C5)C6)c4n3)cc2)CC1 (single isomer, unassigned) [Compound A89, 7-(bicyclo[1.1.1]pentan-1-yl)-2-((4-(4-isopropylpiperazin-1-yl)phenyl)amino)-N,N-dimethyl-7H-pyrrolo[2,3-d]pyrimidine-6-carboxamide] | 440 | 400 | 400 | < 3.2 | < 3.2 | 1520 | 1520 | 4.06 |  |  |  |
| CN(C)C(=O)c1cc2cnc(Nc3ccc(N4CCNCC4)cc3)nc2n1C12CC(C1)C2 [Compound A83, 7-(bicyclo[1.1.1]pentan-1-yl)-N,N-dimethyl-2-((4-(piperazin-1-yl)phenyl)amino)-7H-pyrrolo[2,3-d]pyrimidine-6-carboxamide] |  | 289 | 289 | 6.75 | 6.75 | 3410 | 3410 | 12.7 |  | 15 | 15 |
| CN1CC2(C1)CN(c1ccc(Nc3ncc4cc(C(=O)N(C)C)n(C56CC(C5)C6)c4n3)cc1F)C2 [Compound A70, 7-(bicyclo[1.1.1]pentan-1-yl)-2-((3-fluoro-4-(6-methyl-2,6-diazaspiro[3.3]heptan-2-yl)phenyl)amino)-N,N-dimethyl-7H-pyrrolo[2,3-d]pyrimidine-6-carboxamide] | 732 | 631 | 631 | 15.9 | 15.9 | 5010 | 5010 | 4.76 |  |  |  |
| CN1CCC(c2ccc(Nc3ncc4cc(C(=O)N(C)C)n(C56CC(C5)C6)c4n3)cc2)CC1 [Compound A51, 7-(bicyclo[1.1.1]pentan-1-yl)-N,N-dimethyl-2-((4-(1-methylpiperidin-4-yl)phenyl)amino)-7H-pyrrolo[2,3-d]pyrimidine-6-carboxamide] | 453 | 660 | 660 | 4.52 | 4.52 | 2060 | 2060 | 5.46 |  |  |  |
| CN(C)C(=O)c1cc2cnc(Nc3ccc(S(C)(=O)=O)cc3)nc2n1C12CC(C1)C2 [Compound A79, 7-(bicyclo[1.1.1]pentan-1-yl)-N,N-dimethyl-2-((4-(methylsulfonyl)phenyl)amino)-7H-pyrrolo[2,3-d]pyrimidine-6-carboxamide] | 97.1 | 30.2 | 30.2 | 36 | 36 | > 10000 | > 10000 | < 3.2 | < 3.2 |  |  |
| CN(C)C(=O)c1cc2cnc(Nc3ccc(N4CCN(CCO)CC4)c(F)c3)nc2n1C12CC(C1)C2 [Compound A74, 7-(bicyclo[1.1.1]pentan-1-yl)-2-((3-fluoro-4-(4-(2-hydroxyethyl)piperazin-1-yl)phenyl)amino)-N,N-dimethyl-7H-pyrrolo[2,3-d]pyrimidine-6-carboxamide] | 250 | 245 | 245 | < 3.2 | < 3.2 | 938 | 938 | < 3.2 | < 3.2 |  |  |
